Measured values from ChEMBL document CHEMBL1201862, “PubChem BioAssay data set” (2004).
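Assay format: 96-well plates, 48-hour exposure. GI50 = concentration required for 50% inhibition of growth.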 Activity calls are given as the source filed them. Cut-off read from the data, not from the text of the source: active = GI50 up to about 1.1 µM and inactive = higher.

Assays:
Assay in all cases: NCI-60 cell line screen, 48 h
CAKI-1 = system: CAKI-1
CCRF-CEM = system: CCRF-CEM
ACHN = system: ACHN
COLO 205 = system: COLO 205
SF-268 = system: SF-268
NCI-H460 = system: NCI-H460
DU-145 = system: DU-145
KM12 = system: KM12
MDA-MB-231 = system: MDA-MB-231
LOX IMVI = system: LOX IMVI
Malme-3M = system: Malme-3M
OVCAR-4 = system: OVCAR-4
M14 = system: M14
SNB-19 = system: SNB-19
UO-31 = system: UO-31
SK-OV-3 = system: SK-OV-3
SN12C = system: SN12C
HOP-92 = system: HOP-92
SW-620 = system: SW-620
UACC-62 = system: UACC-62

Measured: GI50

c1ccc2c3c([nH]c2c1)C1CCCN1CC3 (centres undefined)
inactive: CAKI-1 > 10 µM | CCRF-CEM > 10 µM | ACHN > 10 µM | COLO 205 > 10 µM | SF-268 > 10 µM | NCI-H460 > 10 µM | DU-145 > 10 µM | KM12 > 10 µM | MDA-MB-231 > 10 µM | LOX IMVI > 10 µM | Malme-3M > 10 µM | OVCAR-4 > 10 µM | M14 > 10 µM | SNB-19 > 10 µM | UO-31 > 10 µM | SK-OV-3 > 10 µM | SN12C > 10 µM | HOP-92 > 10 µM | SW-620 > 10 µM

COc1ccc(/C=C2\CCC(CN3CCOCC3)C2=O)cc1 (centres undefined)
inactive: CAKI-1 1.99 µM | CCRF-CEM 1.38 µM | ACHN 4.73 µM | COLO 205 2.17 µM | SF-268 6.76 µM | NCI-H460 17.8 µM | DU-145 2.23 µM | KM12 5.65 µM | UACC-62 11.8 µM | MDA-MB-231 2.08 µM | LOX IMVI 4.65 µM | Malme-3M 3.01 µM | OVCAR-4 5.96 µM | M14 2.16 µM | SNB-19 11.4 µM | UO-31 8.45 µM | SK-OV-3 16.4 µM | SN12C 3.83 µM | HOP-92 2.52 µM | SW-620 1.79 µM

O=c1c2c3c(sc2nc2n1N=C(c1ccc(Cl)cc1)CS2)CCCC3
inactive: CAKI-1 > 100 µM | CCRF-CEM > 100 µM | ACHN > 100 µM | COLO 205 > 100 µM | SF-268 > 100 µM | NCI-H460 > 100 µM | DU-145 > 100 µM | KM12 > 100 µM | UACC-62 > 100 µM | MDA-MB-231 > 100 µM | LOX IMVI > 100 µM | Malme-3M > 100 µM | OVCAR-4 > 100 µM | UO-31 > 100 µM | SK-OV-3 > 100 µM | SN12C > 100 µM | HOP-92 > 100 µM | SW-620 > 100 µM

O=C1/C(=C/c2ccc(Cl)cc2)CSc2ccccc21
inactive: CAKI-1 19.4 µM | CCRF-CEM 3.1 µM | COLO 205 25.3 µM | SF-268 22.5 µM | NCI-H460 28.7 µM | DU-145 38.2 µM | KM12 10.1 µM | UACC-62 3.34 µM | MDA-MB-231 19 µM | LOX IMVI 2.68 µM | Malme-3M 25.5 µM | OVCAR-4 36.1 µM | M14 31.8 µM | SNB-19 9.2 µM | UO-31 17.6 µM | SK-OV-3 31.8 µM | SN12C 17.2 µM | HOP-92 33.6 µM | SW-620 3.71 µM

Cc1nnc2n(c1=O)CCN2C
inactive: CCRF-CEM > 100 µM | ACHN > 100 µM | COLO 205 > 100 µM | SF-268 > 100 µM | NCI-H460 > 100 µM | DU-145 > 100 µM | KM12 > 100 µM | UACC-62 > 100 µM | MDA-MB-231 > 100 µM | LOX IMVI > 100 µM | Malme-3M > 100 µM | OVCAR-4 > 100 µM | M14 > 100 µM | SNB-19 > 100 µM | UO-31 > 100 µM | SK-OV-3 > 100 µM | SN12C > 100 µM | HOP-92 > 100 µM | SW-620 > 100 µM

CCN(CC)CCCn1c(=O)c2cccnc2n2c3c(=O)n(C)c(=O)n(C)c3nc12
inactive: CAKI-1 > 100 µM | CCRF-CEM > 100 µM | ACHN > 100 µM | COLO 205 > 100 µM | SF-268 > 100 µM | NCI-H460 84.7 µM | DU-145 > 100 µM | KM12 > 100 µM | UACC-62 > 100 µM | MDA-MB-231 > 100 µM | LOX IMVI > 100 µM | Malme-3M > 100 µM | OVCAR-4 > 100 µM | M14 > 100 µM | SNB-19 > 100 µM | UO-31 > 100 µM | SK-OV-3 > 100 µM | SN12C > 100 µM | HOP-92 > 100 µM | SW-620 > 100 µM

CC1(C)OC(=O)N(c2ccccc2)C12C=Cc1cc([N+](=O)[O-])ccc1O2 (centres undefined)
inactive: CAKI-1 50.1 µM | CCRF-CEM 29.1 µM | ACHN 97.1 µM | COLO 205 45.3 µM | SF-268 51.1 µM | NCI-H460 49.9 µM | DU-145 29.4 µM | KM12 56.6 µM | UACC-62 31.3 µM | MDA-MB-231 19.4 µM | LOX IMVI 48.2 µM | OVCAR-4 61.8 µM | M14 11 µM | SNB-19 35.5 µM | UO-31 25.1 µM | SK-OV-3 28.9 µM | SN12C 56.5 µM | HOP-92 20.2 µM | SW-620 65.6 µM
